Measurements from publication PMC10987949, “Inhibition of HIV-1 release by ADAM metalloproteinase inhibitors” (Frontiers in Microbiology, 2024).

Columns and labels:
TNFα release = TNFα release ELISA, stimulated CD4 T cells; assay type: cell-based, human; details: PHA or anti-CD3 stimulated CD4 T cells
Procedure: PBMC from de-identified healthy donors were obtained with informed consent from the Department of Transfusion Medicine, National Institutes of Health under Biological reagent Registry RD-14-IX-12 approved by NIH biological safety board. CD8-depleted PBMCs, either stimulated or non-stimulated with 10 μg/mL phytohaemagglutinin (PHA) or anti-CD3 antibody (with or without conjugated beads), were plated at 2×10^6 cells/ml in 48 well plates in RPMI 1640 + 10%FBS (R10) to a final volume of 1 mL in each well. IL-2 was added at a final concentration of 20 U/mL. CD3 antibody okt3 was used at ~0.2 μg/mL final concentration. Compounds were prepared in appropriate solvents according to the manufacturer’s instructions, diluted to working concentrations using RPMI 1640 + 10%FBS (R10), and added to the cell cultures for 6–24 h for CD62L shedding, and 48 h for TNF-α release. Supernatants were collected and assessed using either the CD62L or TNF-α Duo Set ELISA kit according to manufacturer’s instructions (R&D Systems, Inc.). The viability of cells treated with compounds was assessed by acridine orange / propidiom iodide (AO/PI Logosbio catalog F23001) staining using Luna-FL cell counter following the manufacture’s instruction.^2

[1] = molecular target: T1, recombinant HIV-1 protease (Human immunodeficiency virus type 1 group M subtype B, UniProt P04585); experiment: HIV-1 protease fluorogenic substrate cleavage; assay type: biochemical; details: 100nM saquinavir or nelfinavir; MMP inhibitors up to 10uM
T1 construct: recombinant HIV-1 protease; purchased Sigma-Aldrich SRP2151
Procedure: HIV-1 protease enzymatic activity was assayed in black 96-well plates at room temperature using a Synergy_h1 fluorescent plate reader with 340 nm excitation and 490 nm emission wavelengths (BioTek). Each enzymatic reaction consisted of a mixture of 100 ng of recombinant HIV-1 protease (Sigma-Aldrich catalog SRP2151), 5 μM concentration of a fluorogenic substrate Arg-Glu(EDANS)-[…]DABCYL)-Arg (Sigma-aldrich catalog H6660), and various concentrations of inhibitor compounds in 100 μL of assay buffer (0.15 M sodium chloride, 1.0 mM EDTA, 1.0 mM DTT, 0.1 M sodium acetate, pH 5.0). The fluorescence of the cleavage reaction was continuously read at every 30 s for a total of 40 min.

HIV-1 = experiment: Ex vivo HIV-1 release from CD4 T cells of HIV-1 infected individuals; assay type: cell-based; details: 50 μM; for effect on viral release (virion-associated HIV RNA): CD4 T cells from six HIV-1 infected individuals, day 2 and 4
Procedure: PBMCs were collected from the study subjects in accordance with a clinical protocol approved by the Institutional Review Board of the National Institute of Allergy and Infectious Diseases, National Institutes of Health under protocol #02-I-0202. CD4^+ T cells were isolated from the PBMCs using a human CD4 T cell separation system (StemCell Technologies, Catalog 19052) and were cultured with medium alone or with plate-bound anti-CD3 and soluble anti-CD28 antibody in the absence or presence of 50 μM of indicated compounds for 48 h. The copy number of cell-free viron-associated HIV RNA in the culture supernatants was quantified using the Cobas Ampliprep/Cobas Taqman HIV-1 Test, Version 2.0 (Roche Diagnostics) with droplet digital PCR (ddPCR, BIO-RAD) on day 2 and 4 of stimulation.

CD4 T cells = experiment: RNA sequencing of CD4 T cells, pathway gene expression; assay type: cell-based, human; details: compound alone
Procedure: CD4+ T cells were enriched from PBMC using EasySep™ human CD4 T cell enrichment kit ([…] Technologies Inc., MA 02142). To prepare samples for RNA sequencing, 5-10×10^6 PBMC or CD4+ T cells from either infected or uninfected samples were lysed for RNA isolation using RNeasy mini kit from QIAGEN. Samples of 2–10 μg RNA with concentration > 25 ng/μl and OD260/280 > 2.0 were used for cDNA library preparation of 250–300 base pair fragments in length, and high throughput sequencing using Illumina Miseq platform by Novogene (Novogene Corp Inc., CA 91914). A total of ~20×10^6 reads were recorded for each sample (Table 3). The mapping and assembly of raw sequencing reads, statistical and preliminary bioinformatic analyses were performed by Novogene. Subsequent gene expression analyses were performed based on expected Fragments Per Kilobase of transcript sequence per Millions base pairs sequenced (FPKM) using sequences of 20 reads or higher. All differential gene expression analyses were done between infected samples in the presence or absence of treatment and their donor matched uninfected controls. […] The RNAseq data is available in GEO database under accession number GSE218175.

HIV = system: HIV; set-up: method as in Kononchik et al., 2018; details: ref Kononchik et al., 2018; cited from earlier work
recombinant ADAM17 = molecular target: T2, recombinant ADAM17 (Homo sapiens, UniProt P78536); experiment: Kinetic cleavage of fluorogenic TNF-α peptide ES003 by recombinant ADAM17; assay type: biochemical; details: for Ki: ES003 substrate, 4-h time point, non-linear regression, read-out: Inhibition constant Ki ADAM17
T2 construct: purchased R&D systems, Inc
T2 sequence (P78536 215-824): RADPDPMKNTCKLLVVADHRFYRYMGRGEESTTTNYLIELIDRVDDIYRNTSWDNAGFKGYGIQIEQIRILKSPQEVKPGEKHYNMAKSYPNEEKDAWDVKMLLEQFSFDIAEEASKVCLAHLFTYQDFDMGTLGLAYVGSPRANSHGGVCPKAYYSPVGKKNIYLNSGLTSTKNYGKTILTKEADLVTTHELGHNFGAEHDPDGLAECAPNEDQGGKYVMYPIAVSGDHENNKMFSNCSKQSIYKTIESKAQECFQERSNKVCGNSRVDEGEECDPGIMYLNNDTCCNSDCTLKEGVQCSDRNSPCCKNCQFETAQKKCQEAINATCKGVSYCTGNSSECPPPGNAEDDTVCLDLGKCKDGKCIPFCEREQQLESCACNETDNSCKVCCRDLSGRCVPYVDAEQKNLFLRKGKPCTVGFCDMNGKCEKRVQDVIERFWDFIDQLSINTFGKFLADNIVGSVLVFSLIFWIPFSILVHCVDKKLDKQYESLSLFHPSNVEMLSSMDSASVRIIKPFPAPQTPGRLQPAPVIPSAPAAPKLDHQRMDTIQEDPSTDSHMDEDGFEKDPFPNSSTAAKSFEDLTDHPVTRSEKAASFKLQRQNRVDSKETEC
Description: A fluorescence based enzymatic assay was used to measure the cleavage of fluorogenic TNF-α and L-selectin (CD62L) peptides by either recombinant ADAMs or PBMC from healthy donors. The fluorogenic substrate, synthesized by Biomatik^3, was a Dabcyl (4-(4-dimethylaminophenylazo)benzoyl)- and Edans (5-[(2-aminoethyl)amino]naphthalene-1-sulfonic acid)- conjugated 12 amino acid peptide: Dabcyl-[…]-Edans that corresponds to the extracellular membrane proximal region of CD62L. […] The cleavage was measured in a kinetic assay every 3 min for 4 h in black 96-well plates using a Synergy_h1 fluorescent plate reader (BioTek) with 340 nm excitation and 490 nm emission wavelengths. […] PBMC were stimulated with anti-CD3 antibody for 2–4 days as described above.
96-well plate with data recorded every 3 minutes for 4 hours using a Synergy_h1 fluorescent plate reader. Each enzymatic reaction contained 50 -200 ng
Figure 2B and 2C bar diagrams are generated using the
data points at 4 hour time point of the enzymatic cleavages.

| Structure (SMILES) | effect on TNFα release (TNFα release) | effect on HIV protease cleavage of fluorogenic substrate [1] | effect on viral release (virion-associated HIV RNA) (HIV-1) | reductions in released virion-associated RNA (HIV-1; day 2 and 4 post stimulation) | transcription of type I interferon pathway genes (CD4 T cells; uninfected CD4 T cells) | expressions of cell cycle genes (CD4 T cells; without HIV-1 infection) | effect on HIV cell-to-cell transfer infections (HIV) | concentrations inhibiting ADAM17 enzymatic activity (recombinant ADAM17) [nM] | inhibition of ADAM17 cleavage of ES003 (recombinant ADAM17; 2 μM compound) | Ki (recombinant ADAM17) [nM] |
| --- | --- | --- | --- | --- | --- | --- | --- | --- | --- | --- |
| CNC(=O)[C@H](Cc1ccccc1)NC(=O)[C@H](CC(C)C)[C@H](CSc1cccs1)C(=O)NO [BB-94, Batimastat] | inhibited | none of the MMP inhibitors, including BB-94, prinomastat, GM6001 and DMDP, inhibited the activity of HIV protease | inhibited the viral release from all individuals | 2–50 fold | does not suppress the transcription of type I interferon pathway genes | decreased slightly the expressions of cell cycle genes | effectively suppressed HIV cell-to-cell transfer infections | – | – | – |
| CC1(C)SCCN(S(=O)(=O)c2ccc(Oc3ccncc3)cc2)[C@H]1C(=O)NO [prinomastat] | – | none of the MMP inhibitors, including BB-94, prinomastat, GM6001 and DMDP, inhibited the activity of HIV protease | inhibited viral release in a portion of the samples | – | – | – | – | 20 to 50 | inhibited both ADAM10 and 17 | 48 ± 36 |
| CNC(=O)[C@@H](NC(=O)[C@H](CCCc1ccccc1)[C@H](C)N(O)C=O)C(C)(C)C [GI254023X] | – | – | – | – | – | – | – | – | – | 3600 ± 380 |
